The values that follow come from patent publication US11058678B2 (Enanta Pharmaceuticals, Inc., priority 2018, dated 2021).

Data set [1] in a line: Compound induced cellular toxicity in HepG2 cells (ATPlite 1 Step). Format: cell-based. Conditions: human, three days, 50% reduction of total ATP levels vs no drug controls. On the procedure:
At day 3, post seeding cells are treated with ATPlite 1 Step according to the manufacturer's instructions.
In general terms: ATP-based viability assays read luminescence as a measure of living cells.

For the next data set, the system named is HBV (2.2.15 cells). The experiment in a line: Antiviral activity in 2.2.15 cells: reduction of viral product accumulation (qPCR of lysates, HBsAg or HBeAg ELISA). The data set is classed as cell-based, hepatitis B virus (HBV). The following applies: Hepatitis B virus, 120 h, day 5 post treatment, 50% reduction of viral product accumulation in lysates or supernatants vs no drug controls, readout (qPCR, HBsAg, HBeAg) not specified. A digest of the protocol: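 HBV-producing 2.2.15 cells, 35,000/well, treated with 5-fold serial compound dilutions at 0.5% final DMSO for 5 days. Lysate HBV DNA by qPCR or supernatant HBsAg/HBeAg by ELISA; EC50 is 50% reduction versus no-drug control, binned A<0.1 μM, B 0.1-1 μM, C>1 μM.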
Background: In qPCR the cycle at which signal appears reflects the starting amount.

The CC50 is the concentration at which the toxic effect on the cells reaches its halfway point. A higher CC50 goes with lower toxicity to the cells. Broadly, the EC50 is the midpoint of the concentration-response curve. `COCCCOc1cc2c(cc1-c1ocnc1C(F)(F)F)-c1cc(=O)c(C(=O)O)cn1[C@H](C(C)(C)C)C2` [Example 27, (S)-6-(tert-butyl)-9-(3-methoxypropoxy)-2-oxo-10-(4-(trifluoromethyl)oxazol-5-yl)-6,7-dihydro-2H-pyrido[2,1-a]isoquinoline-3-carboxylic Acid] displayed a CC50 at 3 days in data set [1] of over 25000 nM. Besides, the EC50 with HBV (2.2.15 cells) was in the range of 100 to 1000 nM.

Regarding `CC(C)(C)[C@@H]1Cc2c(cc(-c3ccsc3)c3c2CCO3)-c2cc(=O)c(C(=O)O)cn21` [Example 71, (S)-5-(tert-butyl)-9-oxo-12-(thiophen-3-yl)-2,3,4,9-tetrahydro-5H-furo[3,2-f]pyrido[2,1-a]isoquinoline-8-carboxylic Acid], the CC50 at 3 days in data set [1] was under 10000 nM. The compound further gave an EC50 in the data set with HBV (2.2.15 cells) of under 100 nM.

Compound `C[C@H]1Cc2c3c(cc(-c4ccoc4)c2O1)-c1cc(=O)c(C(=O)O)cn1[C@H](C(C)(C)C)C3` [Example 132, (2S,5S)-5-(tert-butyl)-12-(furan-3-yl)-2-methyl-9-oxo-2,3,4,9-tetrahydro-5H-furo[3,2-f]pyrido[2,1-a]isoquinoline-8-carboxylic Acid] showed a CC50 at 3 days in data set [1] of under 10000 nM. Moreover, the EC50 in the data set on HBV (2.2.15 cells) is under 100 nM.

Compound `CC(C)(C)[C@@H]1Cc2c(cc(-c3cccc(F)c3)c3c2CCO3)-c2cc(=O)c(C(=O)O)cn21` [Example 65, (S)-5-(tert-butyl)-12-(3-fluorophenyl)-9-oxo-2,3,4,9-tetrahydro-5H-furo[3,2-f]pyrido[2,1-a]isoquinoline-8-carboxylic Acid] showed a CC50 at 3 days in data set [1] of under 10000 nM. In addition, the EC50 with HBV (2.2.15 cells) was under 100 nM.

Regarding `COCCCOc1cc2c(cc1-c1cccc(F)c1F)-c1cc(=O)c(C(=O)O)cn1[C@H](C(C)(C)C)C2` [Example 23, (S)-6-(tert-butyl)-10-(2,3-difluorophenyl)-9-(3-methoxypropoxy)-2-oxo-6,7-dihydro-2H-pyrido[2,1-a]isoquinoline-3-carboxylic Acid], in data set [1], the CC50 at 3 days was over 25000 nM. For the same compound, the EC50 in the data set with HBV (2.2.15 cells) fell in the range of 100 to 1000 nM.

`COCCCOc1cc2c(cc1-c1coc3ccccc13)-c1cc(=O)c(C(=O)O)cn1[C@H](C(C)(C)C)C2` [Example 10, (S)-10-(benzofuran-3-yl)-6-(tert-butyl)-9-(3-methoxypropoxy)-2-oxo-6,7-dihydro-2H-pyrido[2,1-a]isoquinoline-3-carboxylic Acid] had a CC50 at 3 days in data set [1] of over 25000 nM. In the data set with HBV (2.2.15 cells), this compound displayed an EC50 of under 100 nM.

Regarding `COCCCOc1cc2c(cc1-c1ccc(F)cc1F)-c1cc(=O)c(C(=O)O)cn1[C@H](C(C)(C)C)C2` [Example 22, (S)-6-(tert-butyl)-10-(2,4-difluorophenyl)-9-(3-methoxypropoxy)-2-oxo-6,7-dihydro-2H-pyrido[2,1-a]isoquinoline-3-carboxylic Acid], the CC50 at 3 days in data set [1] was over 25000 nM. In the data set with HBV (2.2.15 cells), this compound showed an EC50 of 100 to 1000 nM.

Regarding `COCCCOc1cc2c(cc1-c1ccsc1)-c1cc(=O)c(C(=O)O)cn1[C@H](C(C)(C)C)C2` [Example 5, (S)-6-(tert-butyl)-9-(3-methoxypropoxy)-2-oxo-10-(thiophen-3-yl)-6,7-dihydro-2H-pyrido[2,1-a]isoquinoline-3-carboxylic Acid], the CC50 at 3 days in data set [1] was over 25000 nM. The compound also returned an EC50 with HBV (2.2.15 cells) of under 100 nM.

On to `CC(C)[C@@H]1Cc2c(cc(-c3ccsc3)c3c2CCO3)-c2cc(=O)c(C(=O)O)cn21` [Example 100, (S)-5-isopropyl-9-oxo-12-(thiophen-3-yl)-2,3,4,9-tetrahydro-5H-furo[3,2-f]pyrido[2,1-a]isoquinoline-8-carboxylic Acid], for which the CC50 at 3 days in data set [1] is under 10000 nM. This compound showed an EC50 in the data set with HBV (2.2.15 cells) of under 100 nM.

On to `COCCCOc1cc2c(cc1-c1sc(C)nc1C)-c1cc(=O)c(C(=O)O)cn1[C@H](C(C)(C)C)C2` [Example 20, (S)-6-(tert-butyl)-10-(2,4-dimethylthiazol-5-yl)-9-(3-methoxypropoxy)-2-oxo-6,7-dihydro-2H-pyrido[2,1-a]isoquinoline-3-carboxylic Acid], for which the CC50 at 3 days in data set [1] is over 25000 nM. The compound also gave an EC50 in the data set with HBV (2.2.15 cells) of 100 to 1000 nM.

Regarding `COCCCOc1cc2c(cc1-c1ccccc1)-c1cc(=O)c(C(=O)O)cn1[C@H](C(C)(C)C)C2` [Example 3, (S)-6-(tert-butyl)-9-(3-methoxypropoxy)-2-oxo-10-phenyl-6,7-dihydro-2H-pyrido[2,1-a]isoquinoline-3-carboxylic Acid], the CC50 at 3 days in data set [1] was under 10000 nM. The same compound yielded an EC50 in the data set with HBV (2.2.15 cells) of under 100 nM.

`COCCCOc1cc2c(cc1-c1ccc(F)cc1)-c1cc(=O)c(C(=O)O)cn1[C@H](C(C)(C)C)C2` [Example 15, (S)-6-(tert-butyl)-10-(4-fluorophenyl)-9-(3-methoxypropoxy)-2-oxo-6,7-dihydro-2H-pyrido[2,1-a]isoquinoline-3-carboxylic Acid] had a CC50 at 3 days in data set [1] of 10000 to 25000 nM. Further, the EC50 in the data set on HBV (2.2.15 cells) is under 100 nM.

In data set [1], `COCCCOc1cc2c(cc1-c1ccc(F)cc1)-c1cc(=O)c(C(=O)O)cn1[C@H]1[C@@H]2COC1(C)C` [Example 61, (3aS,12bR)-10-(4-fluorophenyl)-11-(3-methoxypropoxy)-3,3-dimethyl-7-oxo-3,3a,7,12b-tetrahydro-1H-furo[3,4-c]pyrido[2,1-a]isoquinoline-6-carboxylic Acid] came in with a CC50 at 3 days of over 25000 nM. In the data set with HBV (2.2.15 cells), this compound had an EC50 of under 100 nM.

`CC(C)(C)[C@@H]1Cc2c(cc(-c3ccccc3)c3c2CCO3)-c2cc(=O)c(C(=O)O)cn21` [Example 67, (S)-5-(tert-butyl)-9-oxo-12-phenyl-2,3,4,9-tetrahydro-5H-furo[3,2-f]pyrido[2,1-a]isoquinoline-8-carboxylic Acid] registered a CC50 at 3 days in data set [1] of under 10000 nM. In the data set with HBV (2.2.15 cells), this compound came in with an EC50 of under 100 nM.

`COCCCOc1cc2c(cc1-c1ccc(OC)cc1)-c1cc(=O)c(C(=O)O)cn1[C@H](C(C)(C)C)C2` [Example 17, (S)-6-(tert-butyl)-10-(4-methoxyphenyl)-9-(3-methoxypropoxy)-2-oxo-6,7-dihydro-2H-pyrido[2,1-a]isoquinoline-3-carboxylic Acid] yielded a CC50 at 3 days in data set [1] of 10000 to 25000 nM. The same compound came in with an EC50 in the data set on HBV (2.2.15 cells) of under 100 nM.

Take `COCCCOc1cc2c(cc1-c1nc(C(F)(F)F)co1)-c1cc(=O)c(C(=O)O)cn1[C@H](C(C)(C)C)C2` [Example 26, (S)-6-(tert-butyl)-9-(3-methoxypropoxy)-2-oxo-10-(4-(trifluoromethyl)oxazol-2-yl)-6,7-dihydro-2H-pyrido[2,1-a]isoquinoline-3-carboxylic Acid]: the CC50 at 3 days in data set [1] is over 25000 nM. Besides, the EC50 in the data set on HBV (2.2.15 cells) is 100 to 1000 nM.

The compound `COCCCOc1cc2c(cc1C1=COCC1)-c1cc(=O)c(C(=O)O)cn1[C@H](C(C)(C)C)C2` [Example 46, (S)-6-(tert-butyl)-10-(4,5-dihydrofuran-3-yl)-9-(3-methoxypropoxy)-2-oxo-6,7-dihydro-2H-pyrido[2,1-a]isoquinoline-3-carboxylic Acid] displayed a CC50 at 3 days in data set [1] of over 25000 nM. The compound further registered an EC50 with HBV (2.2.15 cells) of under 100 nM.

As to `COCCCOc1cc2c(cc1-c1cccc(F)c1)-c1cc(=O)c(C(=O)O)cn1[C@H](C(C)(C)C)C2` [Example 14, (S)-6-(tert-butyl)-10-(3-fluorophenyl)-9-(3-methoxypropoxy)-2-oxo-6,7-dihydro-2H-pyrido[2,1-a]isoquinoline-3-carboxylic Acid], the CC50 at 3 days in data set [1] is 10000 to 25000 nM. In the data set with HBV (2.2.15 cells), the EC50 was under 100 nM.

The compound `COCCCOc1cc2c(cc1-c1ccc(F)cc1)-c1cc(=O)c(C(=O)O)cn1[C@H]1[C@@H]2CCC1(C)C` [Example 59] returned a CC50 at 3 days in data set [1] of 10000 to 25000 nM. Further, the EC50 in the data set with HBV (2.2.15 cells) was under 100 nM.

`COCCCOc1cc2c(cc1C1=CCCCO1)-c1cc(=O)c(C(=O)O)cn1[C@H](C(C)(C)C)C2` [Example 29, (S)-6-(tert-butyl)-10-(3,4-dihydro-2H-pyran-6-yl)-9-(3-methoxypropoxy)-2-oxo-6,7-dihydro-2H-pyrido[2,1-a]isoquinoline-3-carboxylic Acid] returned a CC50 at 3 days in data set [1] of over 25000 nM. The EC50 in the data set on HBV (2.2.15 cells) fell in the range of 100 to 1000 nM.

Compound `COc1cccc(-c2cc3c(c4c2OCC4)C[C@@H](C(C)(C)C)n2cc(C(=O)O)c(=O)cc2-3)c1` [Example 79, (S)-5-(tert-butyl)-12-(3-methoxyphenyl)-9-oxo-2,3,4,9-tetrahydro-5H-furo[3,2-f]pyrido[2,1-a]isoquinoline-8-carboxylic Acid] returned a CC50 at 3 days in data set [1] of under 10000 nM. In addition, the EC50 in the data set on HBV (2.2.15 cells) is under 100 nM.

The compound `CC(C)(C)[C@@H]1Cc2c(cc(-c3ccc(F)c(F)c3)c3c2CCO3)-c2cc(=O)c(C(=O)O)cn21` [Example 77, (S)-5-(tert-butyl)-12-(3,4-difluorophenyl)-9-oxo-2,3,4,9-tetrahydro-5H-furo[3,2-f]pyrido[2,1-a]isoquinoline-8-carboxylic Acid] displayed a CC50 at 3 days in data set [1] of under 10000 nM. Moreover, in the data set on HBV (2.2.15 cells), the EC50 was under 100 nM.

`CC(C)(C)[C@@H]1Cc2c(cc(N3CC(F)(F)C3)c3c2CCO3)-c2cc(=O)c(C(=O)O)cn21` [Example 30, (S)-5-(tert-butyl)-12-(3,3-difluoroazetidin-1-yl)-9-oxo-2,3,4,9-tetrahydro-5H-furo[3,2-f]pyrido[2,1-a]isoquinoline-8-carboxylic Acid]: the CC50 at 3 days in data set [1] was over 25000 nM. The EC50 in the data set on HBV (2.2.15 cells) was under 100 nM.
